Experimental data taken from the NIST ThermoML archive (doi:10.1021/acs.jced.8b00601).
± gives the expanded uncertainty stated by the source.

Experiment: activity coefficient (dimensionless); of the first substance listed, at infinite dilution; xn = mol fraction of the nth substance listed
Conditions: 101.33 kPa, Liquid, Chromatography, x1 = 0

| Structure (SMILES) | activity coefficient (313 K) | activity coefficient (323 K) | activity coefficient (333 K) | activity coefficient (343 K) |
| --- | --- | --- | --- | --- |
| CCCO [propan-1-ol] + O=S(=O)([N-]S(=O)(=O)C(F)(F)F)C(F)(F)F.O=S(=O)([N-]S(=O)(=O)C(F)(F)F)C(F)(F)F.O=S(=O)([N-]S(=O)(=O)C(F)(F)F)C(F)(F)F.c1ccc2cc(-n3cc[n+](Cc4cc(C[n+]5ccn(-c6ccc7ccccc7c6)c5)cc(C[n+]5ccn(-c6ccc7ccccc7c6)c5)c4)c3)ccc2c1 | 1.4 ± 0.16 | 1.1 ± 0.13 | 0.842 ± 0.094 | 0.73 ± 0.079 |
| Cc1ccccc1C [1,2-dimethylbenzene] + O=S(=O)([N-]S(=O)(=O)C(F)(F)F)C(F)(F)F.O=S(=O)([N-]S(=O)(=O)C(F)(F)F)C(F)(F)F.O=S(=O)([N-]S(=O)(=O)C(F)(F)F)C(F)(F)F.c1ccc2cc(-n3cc[n+](Cc4cc(C[n+]5ccn(-c6ccc7ccccc7c6)c5)cc(C[n+]5ccn(-c6ccc7ccccc7c6)c5)c4)c3)ccc2c1 | 3.35 ± 0.41 | 2.25 ± 0.3 | 1.54 ± 0.2 | 1.04 ± 0.14 |
| CCCC=O [butanal] + O=S(=O)([N-]S(=O)(=O)C(F)(F)F)C(F)(F)F.O=S(=O)([N-]S(=O)(=O)C(F)(F)F)C(F)(F)F.O=S(=O)([N-]S(=O)(=O)C(F)(F)F)C(F)(F)F.c1ccc2cc(-n3cc[n+](Cc4cc(C[n+]5ccn(-c6ccc7ccccc7c6)c5)cc(C[n+]5ccn(-c6ccc7ccccc7c6)c5)c4)c3)ccc2c1 | 0.425 ± 0.049 | 0.415 ± 0.048 | 0.396 ± 0.047 | 0.324 ± 0.043 |
| c1ccncc1 [pyridine] + O=S(=O)([N-]S(=O)(=O)C(F)(F)F)C(F)(F)F.O=S(=O)([N-]S(=O)(=O)C(F)(F)F)C(F)(F)F.O=S(=O)([N-]S(=O)(=O)C(F)(F)F)C(F)(F)F.c1ccc2cc(-n3cc[n+](Cc4cc(C[n+]5ccn(-c6ccc7ccccc7c6)c5)cc(C[n+]5ccn(-c6ccc7ccccc7c6)c5)c4)c3)ccc2c1 |  | 0.164 ± 0.031 | 0.173 ± 0.032 | 0.198 ± 0.033 |
| Cc1cccc(C)c1 [1,3-dimethylbenzene] + O=S(=O)([N-]S(=O)(=O)C(F)(F)F)C(F)(F)F.O=S(=O)([N-]S(=O)(=O)C(F)(F)F)C(F)(F)F.O=S(=O)([N-]S(=O)(=O)C(F)(F)F)C(F)(F)F.c1ccc2cc(-n3cc[n+](Cc4cc(C[n+]5ccn(-c6ccc7ccccc7c6)c5)cc(C[n+]5ccn(-c6ccc7ccccc7c6)c5)c4)c3)ccc2c1 | 3.42 ± 0.42 | 2.31 ± 0.31 | 1.52 ± 0.19 | 1.26 ± 0.14 |
| CCCCCCCC [octane] + O=S(=O)([N-]S(=O)(=O)C(F)(F)F)C(F)(F)F.O=S(=O)([N-]S(=O)(=O)C(F)(F)F)C(F)(F)F.O=S(=O)([N-]S(=O)(=O)C(F)(F)F)C(F)(F)F.c1ccc2cc(-n3cc[n+](Cc4cc(C[n+]5ccn(-c6ccc7ccccc7c6)c5)cc(C[n+]5ccn(-c6ccc7ccccc7c6)c5)c4)c3)ccc2c1 | 28.4 ± 3.5 | 19.4 ± 2.5 | 14.1 ± 1.8 | 9.43 ± 1.4 |
| C1CCCCC1 [cyclohexane] + O=S(=O)([N-]S(=O)(=O)C(F)(F)F)C(F)(F)F.O=S(=O)([N-]S(=O)(=O)C(F)(F)F)C(F)(F)F.O=S(=O)([N-]S(=O)(=O)C(F)(F)F)C(F)(F)F.c1ccc2cc(-n3cc[n+](Cc4cc(C[n+]5ccn(-c6ccc7ccccc7c6)c5)cc(C[n+]5ccn(-c6ccc7ccccc7c6)c5)c4)c3)ccc2c1 | 11.7 ± 1.3 | 9.16 ± 1 | 8.09 ± 0.9 | 6.25 ± 0.75 |
| O=C1CCCC1 [cyclopentanone] + O=S(=O)([N-]S(=O)(=O)C(F)(F)F)C(F)(F)F.O=S(=O)([N-]S(=O)(=O)C(F)(F)F)C(F)(F)F.O=S(=O)([N-]S(=O)(=O)C(F)(F)F)C(F)(F)F.c1ccc2cc(-n3cc[n+](Cc4cc(C[n+]5ccn(-c6ccc7ccccc7c6)c5)cc(C[n+]5ccn(-c6ccc7ccccc7c6)c5)c4)c3)ccc2c1 | 0.303 ± 0.039 | 0.296 ± 0.04 | 0.22 ± 0.035 | 0.211 ± 0.034 |
| c1ccccc1 [benzene] + O=S(=O)([N-]S(=O)(=O)C(F)(F)F)C(F)(F)F.O=S(=O)([N-]S(=O)(=O)C(F)(F)F)C(F)(F)F.O=S(=O)([N-]S(=O)(=O)C(F)(F)F)C(F)(F)F.c1ccc2cc(-n3cc[n+](Cc4cc(C[n+]5ccn(-c6ccc7ccccc7c6)c5)cc(C[n+]5ccn(-c6ccc7ccccc7c6)c5)c4)c3)ccc2c1 | 2.58 ± 0.3 | 1.88 ± 0.23 | 1.35 ± 0.17 | 0.994 ± 0.12 |
| CCOC(C)=O [ethyl acetate] + O=S(=O)([N-]S(=O)(=O)C(F)(F)F)C(F)(F)F.O=S(=O)([N-]S(=O)(=O)C(F)(F)F)C(F)(F)F.O=S(=O)([N-]S(=O)(=O)C(F)(F)F)C(F)(F)F.c1ccc2cc(-n3cc[n+](Cc4cc(C[n+]5ccn(-c6ccc7ccccc7c6)c5)cc(C[n+]5ccn(-c6ccc7ccccc7c6)c5)c4)c3)ccc2c1 | 1.02 ± 0.11 | 0.776 ± 0.093 | 0.544 ± 0.068 | 0.443 ± 0.054 |
| ClCCCl [1,2-dichloroethane] + O=S(=O)([N-]S(=O)(=O)C(F)(F)F)C(F)(F)F.O=S(=O)([N-]S(=O)(=O)C(F)(F)F)C(F)(F)F.O=S(=O)([N-]S(=O)(=O)C(F)(F)F)C(F)(F)F.c1ccc2cc(-n3cc[n+](Cc4cc(C[n+]5ccn(-c6ccc7ccccc7c6)c5)cc(C[n+]5ccn(-c6ccc7ccccc7c6)c5)c4)c3)ccc2c1 | 0.758 ± 0.079 | 0.738 ± 0.077 | 0.677 ± 0.071 | 0.679 ± 0.071 |
| C1COCCO1 [1,4-dioxane] + O=S(=O)([N-]S(=O)(=O)C(F)(F)F)C(F)(F)F.O=S(=O)([N-]S(=O)(=O)C(F)(F)F)C(F)(F)F.O=S(=O)([N-]S(=O)(=O)C(F)(F)F)C(F)(F)F.c1ccc2cc(-n3cc[n+](Cc4cc(C[n+]5ccn(-c6ccc7ccccc7c6)c5)cc(C[n+]5ccn(-c6ccc7ccccc7c6)c5)c4)c3)ccc2c1 | 0.481 ± 0.06 | 0.34 ± 0.047 | 0.276 ± 0.038 | 0.262 ± 0.037 |
| Cc1ccc(C)cc1 [1,4-dimethylbenzene] + O=S(=O)([N-]S(=O)(=O)C(F)(F)F)C(F)(F)F.O=S(=O)([N-]S(=O)(=O)C(F)(F)F)C(F)(F)F.O=S(=O)([N-]S(=O)(=O)C(F)(F)F)C(F)(F)F.c1ccc2cc(-n3cc[n+](Cc4cc(C[n+]5ccn(-c6ccc7ccccc7c6)c5)cc(C[n+]5ccn(-c6ccc7ccccc7c6)c5)c4)c3)ccc2c1 | 4.47 ± 0.56 | 2.94 ± 0.39 | 2.09 ± 0.26 | 1.51 ± 0.2 |
| O=C1CCCCC1 [cyclohexanone] + O=S(=O)([N-]S(=O)(=O)C(F)(F)F)C(F)(F)F.O=S(=O)([N-]S(=O)(=O)C(F)(F)F)C(F)(F)F.O=S(=O)([N-]S(=O)(=O)C(F)(F)F)C(F)(F)F.c1ccc2cc(-n3cc[n+](Cc4cc(C[n+]5ccn(-c6ccc7ccccc7c6)c5)cc(C[n+]5ccn(-c6ccc7ccccc7c6)c5)c4)c3)ccc2c1 | 1 ± 0.1 | 0.999 ± 0.1 | 1 ± 0.1 | 1 ± 0.1 |
| O=Cc1ccccc1 [benzaldehyde] + O=S(=O)([N-]S(=O)(=O)C(F)(F)F)C(F)(F)F.O=S(=O)([N-]S(=O)(=O)C(F)(F)F)C(F)(F)F.O=S(=O)([N-]S(=O)(=O)C(F)(F)F)C(F)(F)F.c1ccc2cc(-n3cc[n+](Cc4cc(C[n+]5ccn(-c6ccc7ccccc7c6)c5)cc(C[n+]5ccn(-c6ccc7ccccc7c6)c5)c4)c3)ccc2c1 | 1 ± 0.1 | 0.999 ± 0.1 | 1 ± 0.1 | 1 ± 0.1 |
| CC#N [acetonitrile] + O=S(=O)([N-]S(=O)(=O)C(F)(F)F)C(F)(F)F.O=S(=O)([N-]S(=O)(=O)C(F)(F)F)C(F)(F)F.O=S(=O)([N-]S(=O)(=O)C(F)(F)F)C(F)(F)F.c1ccc2cc(-n3cc[n+](Cc4cc(C[n+]5ccn(-c6ccc7ccccc7c6)c5)cc(C[n+]5ccn(-c6ccc7ccccc7c6)c5)c4)c3)ccc2c1 | 0.263 ± 0.038 | 0.217 ± 0.035 | 0.189 ± 0.033 | 0.181 ± 0.032 |
| CCCCCCC [heptane] + O=S(=O)([N-]S(=O)(=O)C(F)(F)F)C(F)(F)F.O=S(=O)([N-]S(=O)(=O)C(F)(F)F)C(F)(F)F.O=S(=O)([N-]S(=O)(=O)C(F)(F)F)C(F)(F)F.c1ccc2cc(-n3cc[n+](Cc4cc(C[n+]5ccn(-c6ccc7ccccc7c6)c5)cc(C[n+]5ccn(-c6ccc7ccccc7c6)c5)c4)c3)ccc2c1 | 12.2 ± 1.3 | 10.1 ± 1.2 | 6.77 ± 0.82 | 6.03 ± 0.65 |
| CCCC(C)=O [pentan-2-one] + O=S(=O)([N-]S(=O)(=O)C(F)(F)F)C(F)(F)F.O=S(=O)([N-]S(=O)(=O)C(F)(F)F)C(F)(F)F.O=S(=O)([N-]S(=O)(=O)C(F)(F)F)C(F)(F)F.c1ccc2cc(-n3cc[n+](Cc4cc(C[n+]5ccn(-c6ccc7ccccc7c6)c5)cc(C[n+]5ccn(-c6ccc7ccccc7c6)c5)c4)c3)ccc2c1 | 0.54 ± 0.062 | 0.441 ± 0.053 | 0.365 ± 0.045 | 0.341 ± 0.042 |
| CCO [ethanol] + O=S(=O)([N-]S(=O)(=O)C(F)(F)F)C(F)(F)F.O=S(=O)([N-]S(=O)(=O)C(F)(F)F)C(F)(F)F.O=S(=O)([N-]S(=O)(=O)C(F)(F)F)C(F)(F)F.c1ccc2cc(-n3cc[n+](Cc4cc(C[n+]5ccn(-c6ccc7ccccc7c6)c5)cc(C[n+]5ccn(-c6ccc7ccccc7c6)c5)c4)c3)ccc2c1 | 0.927 ± 0.1 | 0.724 ± 0.082 | 0.611 ± 0.066 | 0.606 ± 0.064 |
| CC(C)O [propan-2-ol] + O=S(=O)([N-]S(=O)(=O)C(F)(F)F)C(F)(F)F.O=S(=O)([N-]S(=O)(=O)C(F)(F)F)C(F)(F)F.O=S(=O)([N-]S(=O)(=O)C(F)(F)F)C(F)(F)F.c1ccc2cc(-n3cc[n+](Cc4cc(C[n+]5ccn(-c6ccc7ccccc7c6)c5)cc(C[n+]5ccn(-c6ccc7ccccc7c6)c5)c4)c3)ccc2c1 | 1.89 ± 0.24 | 1.24 ± 0.16 | 0.965 ± 0.11 | 0.693 ± 0.091 |
